For 1 compound, IC50 and Ki results are on record in patent US6878522B2, “Methods for the identification of compounds useful for the treatment of disease states mediated by prostaglandin D2” (priority 2000, dated 2005).

The target of test [1] is T1, CRTH2 (Homo sapiens, UniProt Q9Y5Y4).
T1 construct: prolactin (prolac) signal peptide (N); expressed in transfected cells; host or cells: 300-19 cells (transformed murine pre-B lymphocytes)
T1 sequence (Q9Y5Y4 1-395): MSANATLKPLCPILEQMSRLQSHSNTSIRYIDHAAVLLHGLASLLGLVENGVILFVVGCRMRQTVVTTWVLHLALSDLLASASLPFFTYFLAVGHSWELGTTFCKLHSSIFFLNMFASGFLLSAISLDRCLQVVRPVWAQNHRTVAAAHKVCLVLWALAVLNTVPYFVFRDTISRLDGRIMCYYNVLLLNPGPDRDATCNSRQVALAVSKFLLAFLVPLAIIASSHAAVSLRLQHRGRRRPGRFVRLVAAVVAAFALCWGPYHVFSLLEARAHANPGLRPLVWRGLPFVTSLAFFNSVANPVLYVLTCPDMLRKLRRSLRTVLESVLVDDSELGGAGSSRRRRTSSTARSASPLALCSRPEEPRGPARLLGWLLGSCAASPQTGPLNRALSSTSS
Nature of the test: Competition with 3H-PGD2 binding at the CRTH2 receptor (Examples 6-9). The following applies: control, cold PGD2, 8 trials. The method, then:
To directly determine the binding affinity of CRTH2 for PGD2, the following binding assay was used. Transfected and parental 300-19 cells were washed twice at room temperature with assay buffer, and resuspended at a concentration of 2×10^7 cells/ml. Using a 96-well U-bottom polypropylene plate (Costar, Corning Inc., Acton, Mass.), the assay was set up as follows: 50 μl of vehicle (0.3% DMSO in assay buffer, total wells) or of […] cold PGD2 (NS wells); 50 μl cells (2×10^7 cells/ml for 10^6 cells per well); 50 μl 6 nM [3H]-PGD2. The plate was allowed to incubate for 20 min at RT before centrifugation (2800 rpm, Sorval RT6000, 5 min, 4° C.). The plate was harvested (Packard Unifilter plate GF/C, previously soaked in 3% PEI for at least 1 hr) with cold assay buffer using a Packard Filtermate Cell Harvester (6×150 μl buffer wash per well). The filterplate was dried overnight. After the addition of 50 μl scintillation fluid (Packard Microscint 0), the plate was counted in a Packard Topcount scintillation counter (1 min per well). […] The solutions of labeled PGD2 and unlabeled “cold” PGD2 were prepared as follows: 10 μl of [^3H]-PGD2 (Amersham lot # TRK734 162 Ci/mmol, 0.1 Ci/ml in methanol: water: acetonitrile (3:2:1), 617 nM) per ml assay buffer was used to prepare a solution of [^3H]-PGD2 at a concentration of 6 nM (50 μl/well for final conc. of 2 nM); cold PGD2 (Biomol #PG-005, lot # P4653) was dissolved in DMSO for a stock of 10 mM (stored at −20° C.). The 10 mM stock was diluted 3:1000 to obtain a final concentration of […] (50 μl/well for final conc. of […]). Assay buffer: Hank's balanced saline supplemented with HEPES and sodium bicarbonate: 100 ml/L of 10× Hank's Balanced saline (with Ca^+2, Mg^+2); 10 ml/L of 1M HEPES; 4.7 ml/L of 7.5% Sodium Bicarbonate.
In the assay, the capacity of each D-ring compound to compete with binding of ^3H-PGD2 was measured at both the CRTH2 and DP receptors, and an IC50 value (in μM) was determined. […] The binding assay procedure of Example 1 was used. Preferably, the ratio of IC50 at CRTH2 to IC50 at DP is less than about twenty, and more preferably is […].

Test [2] has as its target T2, TP receptor (Homo sapiens, UniProt P21731).
T2 sequence (P21731 1-343): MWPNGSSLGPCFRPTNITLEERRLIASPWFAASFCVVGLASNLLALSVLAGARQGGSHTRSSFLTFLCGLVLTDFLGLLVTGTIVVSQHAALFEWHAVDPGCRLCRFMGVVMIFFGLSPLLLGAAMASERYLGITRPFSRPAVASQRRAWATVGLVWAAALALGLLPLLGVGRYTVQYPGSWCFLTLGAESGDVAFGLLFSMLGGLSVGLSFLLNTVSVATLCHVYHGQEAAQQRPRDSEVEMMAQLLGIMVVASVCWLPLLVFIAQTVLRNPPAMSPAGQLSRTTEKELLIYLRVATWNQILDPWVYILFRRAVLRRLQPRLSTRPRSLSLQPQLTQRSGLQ
The following applies: cited from earlier work.

Consider `CCCCC[C@H](O)/C=C/[C@H]1C(=O)C[C@H](O)[C@@H]1C/C=C\CCCC(=O)O` [PGD2, prostaglandin D2], for which, in test [1], the IC50 (commonly the concentration that inhibits the measured activity by half) is 0.0107 µM. Moreover, the Ki (usually a measure of affinity in units of concentration, obtained from inhibition or displacement) in test [2] was 75 µM.
